“Also recorded” adds a separate entry of the source.
Legend:
[1] = Body weight and energy intake in mice fed a high-fat diet with 2′-FL in drinking water; format: in vivo, Male C57/BL6 mice; details: 2′-FL 10% (w/v) in drinking water, 6 wk, vs HF group
Experimental: Animals were maintained and handled in accordance with protocols approved by the Institutional Animal Care and Use Committee (University of California, Davis). Male C57/BL6 mice (n=6/group; 6 week old, Harlan, San Diego, Calif.) were split into three weight-matched groups and fed either a low-fat (LF; 10% kcal as fat), high-fat (HF; 45% kcal as fat), or HF diet with 2′-FL (HF_2′-FL) at 10% (w/v) in drinking water for 6 wk. All animals were housed individually at 22° C. with 12 h:12 h light-dark cycles. Body weight and food intake were measured twice a week. Statistical analysis was performed using Prism software (Prism 8.1.2; GraphPad Software). Six-week HF feeding increased energy intake compared to the LF groups but without statistical significance (FIG. 1B). […] For FIGS. 1A and 1B, data are presented as means±SEMs. ROUT test was used to exclude outliers. Differences were considered significant if P<0.05.

[2] = Body composition (EchoMRI fat and lean mass) and adipocyte size in mice fed LF or HF with or without 10% 2′-FL; format: in vivo; details: 10% 2′-FL supplementation diet, 8 weeks
Experimental: Body composition for fat and lean mass (FIGS. 2A and 2B) was analyzed in live animals using EchoMRI-100 ™ from Echo Medical Systems (Houston, Tex.) every two weeks in mice fed an LF or HF with or without 10% 2′-FL supplementation. To measure the size of adipocytes (FIG. 2C), mesenteric adipose tissue collected at euthanasia was fixed in 10% neutral-buffered formalin (Thermo Fisher Scientific, Waltham, Mass.) overnight and transferred to 70% ethanol for one day. Afterwards, the tissues were processed in a routine manner for paraffin sections (Tissue Tek VIP Tissue Processor; Sakura Finetek USA, Torrance, Calif.). Paraffin-embedded sections (5 μm) were cut and stained with H&E (Sigma-Aldrich) for microscopic examination (Olympus BX60, Waltham, Mass.) at 20× magnification. To quantitate adipocyte size (FIG. 2C), the H&E-stained sections were analyzed using the ImageJ software (National Institutes of Health, Bethesda, Md.). For hepatic gene expression of peroxisome proliferator-activated receptor γ (PPAR γ) and sterol regulatory element binding protein-1c (SREBP-1c) (FIGS. 2D and 2E), total RNA from liver samples was extracted via the TRIzol method (Life Technologies, Grand Island, N.Y.). cDNAs were synthesized from […] of purified RNA samples using iScript cDNA synthesis kit (Bio-Rad, Hercules, Calif.) following the manufacturer's protocol. Real-time PCR was performed with the Quantstudio 6 Flex real-time PCR machine using SyberGreen master mix (Life Technologies) for detection. R-Actin and GAPDH were used as housekeeping genes. Genes of interest were analyzed according to the 2^−ΔΔT method and compared with control samples.
For FIGS. 2A-2E, statistical analysis was performed by using Prism software (Prism 8.4; GraphPad Software, La Jolla, Calif.). Data are presented as means±SEMs. ROUT test was used to exclude outliers. Differences were considered significant if P<0.05.

[3] = tested on: peroxisome proliferator-activated receptor γ (PPAR γ); experiment: Hepatic gene expression of PPARγ (real-time PCR); format: in vivo, mice; details: 10% 2′-FL supplementation diet, 8 weeks
Experimental: (§1) Body composition for fat and lean mass (FIGS. 2A and 2B) was analyzed in live animals using EchoMRI-100 ™ from Echo Medical Systems (Houston, Tex.) every two weeks in mice fed an LF or HF with or without 10% 2′-FL supplementation. To measure the size of adipocytes (FIG. 2C), mesenteric adipose tissue collected at euthanasia was fixed in 10% neutral-buffered formalin (Thermo Fisher Scientific, Waltham, Mass.) overnight and transferred to 70% ethanol for one day. Afterwards, the tissues were processed in a routine manner for paraffin sections (Tissue Tek VIP Tissue Processor; Sakura Finetek USA, Torrance, Calif.). Paraffin-embedded sections (5 μm) were cut and stained with H&E (Sigma-Aldrich) for microscopic examination (Olympus BX60, Waltham, Mass.) at 20× magnification. To quantitate adipocyte size (FIG. 2C), the H&E-stained sections were analyzed using the ImageJ software (National Institutes of Health, Bethesda, Md.). […] Genes of interest were analyzed according to the 2^−ΔΔT method and compared with control samples. […]

[4] = tested on: sterol regulatory element binding protein-1c (SREBP-1c); experiment: Hepatic gene expression of SREBP-1c (real-time PCR); format: in vivo, mice; details: 10% 2′-FL supplementation diet, 8 weeks
Experimental: as §1

[5] = CCK feeding study (food intake after i.p. CCK); format: in vivo, mice; details: HF + 10% 2′-FL, CCK i.p. vs saline, 6 h fast
Experimental: (§2) After 4 weeks on respective diets, 2′-FL sensitivity to the satiating effect of the gut peptide CCK was tested (FIG. 3A). Experiments were performed at the onset of the dark phase. Mice were fasted on wire-bottom cages for 6 h during the light phase. At the onset of the dark phase, CCK (octapeptide, sulfated, Bachem, Torrance, Calif., 100 μl at […]; i.p.) or saline (100 μl; i.p.) was administered. Food was placed in the cage and food intake recorded after 20 min. After 6 weeks of respective diets, c-Fos expression in hindbrain was determined. (FIGS. 3B and 3C). Mice were fasted for 4 h, ip injected with CCK ([…]), and euthanized using deep anesthesia induced with pentobarbital (Fatal Plus, Vortech Pharmaceuticals, Dearborn, Mich., USA; 300 mg/kg; i.p.). The hindbrain was collected and post-fixed in 4% paraformaldehyde (Electron Microscopy Sciences, Hatfield, Pa.). Hindbrains were cryosectioned at 30 μm thickness and stained for c-Fos protein expression in the NTS and AP regions. […] Images were acquired using a confocal microscope (Leica TCS SP8 STED 3×; Leica, Wetzlar, Germany) and quantified in a blinded manner using Imaris Software (Bitplane, Zurich, Switzerland). […]

c-Fos = c-Fos expression in hindbrain (NTS and AP) after CCK injection; format: in vivo, mice; details: 10% 2′-FL supplementation, CCK i.p.
Experimental: as §2

[6] = Gut permeability of cecum in Ussing chambers (FD-4 flux); format: in vivo, mice; details: 10% 2′-FL supplementation diet, 8 weeks, flux at 90 min
Experimental: (§3) To measure gut permeability (FIGS. 4A and 4B), a section of cecum was opened along the mesenteric border and mounted in Ussing chambers (Physiologic Instruments, San Diego, Calif.), exposing 0.3 cm^2 of tissue surface area to 2.5 ml of oxygenated Krebs-glucose (10 mM) and Krebs-mannitol (10 mM) at 37° C. on the serosal and luminal sides, respectively. The paracellular pathway and transcellular pathway were measured as the flux of FITC-4000 (FD-4; Sigma-Aldrich) and horseradish peroxidase (HRP Type VI; Sigma Aldrich), respectively. FD-4 ([…]) and HRP ([…]) were added to the mucosal chamber, and samples were collected from the serosal chamber every 30 min for 2 h. The concentration of FD-4 was measured via fluorescence at excitation of 485 nm and emission of 538 nm. O-dianisidine substrate was used to detect HRP at absorbance 450 nm. Data are shown as flux at 90 min. Gene expression of IL-22 in the ileum (FIG. 4C) and MCP-1 (FIG. 4E) in adipose tissue were measured as described in Example 2. LBP levels (FIG. 4D) were detected in plasma via enzyme-linked immunosorbent assay according to manufacturer's recommendation (Biometec). […] For FIGS. 4A-4E, statistical analysis was performed by using Prism software (Prism 8.4; GraphPad Software, La Jolla, Calif.). Data are presented as means SEMs. ROUT test was used to exclude outliers. Differences were considered significant if P<0.05.

[7] = tested on: lipopolysaccharide-binding protein (LBP); experiment: Plasma LBP level by enzyme-linked immunosorbent assay; format: in vivo, mice; details: HF + 10% 2′-FL in drinking water, 6 weeks
Experimental: as §3

[8] = tested on: monocyte chemoattractant protein-1 (MCP-1); experiment: Gene expression of MCP-1 in adipose tissue (real-time PCR); format: in vivo, mice; details: HF + 10% 2′-FL in drinking water, 6 weeks
Experimental: as §3

2′-fucosyllactose [2′-FL]
energy intake ([1]; HF diet (45% kcal as fat)): suppressed
body weight ([1]; HF diet): lower body weight compared with the HF group
adipogenesis (adipocyte size in visceral adipose tissue) [2]: suppresses adipogenesis
adiposity (fat body mass) [2]: reduced adiposity
lean mass [2]: preserving lean mass
gene expression of PPAR γ in the liver [3]: downregulates
gene expression of SREBP-1c in the liver [4]: downregulates
sensitivity to the satiating effect of CCK (food intake after 20 min) [5]: restores sensitivity to CCK
intestinal satiety signals (c-Fos immunopositive cells in NTS and AP) (c-Fos): restores intestinal satiety signals
paracellular permeability (FD-4 flux in cecum) [6]: decreased paracellular permeability
circulating LPB levels [7]: reduced circulating LPB levels
expression of inflammatory cytokines in adipocytes (MCP-1 gene expression in adipose tissue) [8]: significant decrease of MCP-1 gene expression; also recorded: systemically lowered expression of inflammatory cytokines in adipocytes

— patent US20220273016A1, “HUMAN MILK OLIGOSACCHARIDES FOR CONTROL OF DIETARY RESPONSE AND METABOLIC PHENOTYPE” (The Regents of the University of California, priority 2019, published 2022)
